Where two headings read alike, the source gives them in different places.
What was measured:
[1] = biological target: wild-type PRC2 enzyme (EZH2 WT) (Homo sapiens, UniProt Q15910); experiment: PRC2 enzyme assay on peptide substrate, wild-type EZH2
From the text: (§1) S-adenosylmethionine (SAM), S-adenosylhomocyteine (SAH), bicine, KCl, Tween20, dimethylsulfoxide (DMSO) and bovine skin gelatin (BSG) can be purchased from Sigma-Aldrich at the highest level of purity possible. Dithiothreitol (DTT) was purchased from EMD. ^3H-SAM can be purchased from American Radiolabeled Chemicals with a specific activity of 80 C1/mmol. 384-well streptavidin Flashplates can be purchased from PerkinElmer.
(§2) Recombinant PRC2 Enzymes. Human PRC2 enzymes are purified as 4-component enzyme complexes co-expressed in Spodoptera frugiperda (sf9) cells using a baculovirus expression system. […] The EED subunit contains an N-terminal FLAG tag that is used to purify the entire 4-component complex from sf9 cell lysates. The purity of the complexes meets or exceeds 95% as determined by SDS-PAGE and Agilent Bioanalyzer analysis.
(§3) General Procedure for PRC2 Enzyme Assays on Peptide Substrates. The assays are all performed in a buffer consisting of 20 mM bicine (pH=7.6), 0.5 mM DTT, 0.005% BSG and 0.002% Tween20, prepared on the day of use. […] DMSO (1 μL) is added to columns 11, 12, 23, 24, rows A-H for the maximum signal control, and SAH, a known product and inhibitor of PRC2 (1 μL) is added to columns 11, 12, 23, 24, rows I-P for the minimum signal control. A cocktail (40 μL) containing the wild-type PRC2 enzyme and H3K27me0 peptide or any of the Y641 mutant enzymes and H3K27me2 peptide is added by Multidrop Combi (Thermo). The compounds are allowed to incubate with PRC2 for 30 min at 25° C., then a cocktail (10 μL) containing a mixture of non-radioactive and ^3H-SAM is added to initiate the reaction (final volume=51 μL). […] The assays are stopped by the addition of non-radioactive SAM (10 μL) to a final concentration of 600 μM, which dilutes the ^3H-SAM to a level where its incorporation into the peptide substrate is no longer detectable. 50 μL of the reaction in the 384-well polypropylene plate is then transferred to a 384-well Flashplate and the biotinylated peptides are allowed to bind to the streptavidin surface for at least 1h before being washed three times with 0.1% Tween20 in a Biotek ELx405 plate washer. The plates are then read in a PerkinElmer TopCount platereader to measure the quantity of ^3H-labeled peptide bound to the Flashplate surface, measured as disintegrations per minute (dpm) or alternatively, referred to as counts per minute (cpm).
(§4) Where dpm=disintegrations per minute, cmpd=signal in assay well, and min and max are the respective minimum and maximum signal controls.
(§5) Where top and bottom are the normally allowed to float, but may be fixed at 100 or 0 respectively in a 3-parameter fit. The Hill Coefficient normally allowed to float but may also be fixed at 1 in a 3-parameter fit. Y is the % inhibition and X is the compound concentration.

[2] = biological target: Y641 mutant PRC2 enzyme (EZH2 Y641) (Homo sapiens, UniProt Q15910, Y641F); experiment: PRC2 enzyme assay on peptide substrate, Y641 mutant EZH2
From the text: as §1, §2, §3, §4, §5

[3] = EZH2 WT IC50 (μM), wild-type PRC2 enzyme, H3K27me0 peptide substrate
[4] = EZH2 Y641 IC50 (μM), Y641 mutant EZH2 such as Y641F, H3K27me2 peptide substrate

Sequence of Y641 mutant PRC2 enzyme (EZH2 Y641) (Q15910 whole entry Y641F): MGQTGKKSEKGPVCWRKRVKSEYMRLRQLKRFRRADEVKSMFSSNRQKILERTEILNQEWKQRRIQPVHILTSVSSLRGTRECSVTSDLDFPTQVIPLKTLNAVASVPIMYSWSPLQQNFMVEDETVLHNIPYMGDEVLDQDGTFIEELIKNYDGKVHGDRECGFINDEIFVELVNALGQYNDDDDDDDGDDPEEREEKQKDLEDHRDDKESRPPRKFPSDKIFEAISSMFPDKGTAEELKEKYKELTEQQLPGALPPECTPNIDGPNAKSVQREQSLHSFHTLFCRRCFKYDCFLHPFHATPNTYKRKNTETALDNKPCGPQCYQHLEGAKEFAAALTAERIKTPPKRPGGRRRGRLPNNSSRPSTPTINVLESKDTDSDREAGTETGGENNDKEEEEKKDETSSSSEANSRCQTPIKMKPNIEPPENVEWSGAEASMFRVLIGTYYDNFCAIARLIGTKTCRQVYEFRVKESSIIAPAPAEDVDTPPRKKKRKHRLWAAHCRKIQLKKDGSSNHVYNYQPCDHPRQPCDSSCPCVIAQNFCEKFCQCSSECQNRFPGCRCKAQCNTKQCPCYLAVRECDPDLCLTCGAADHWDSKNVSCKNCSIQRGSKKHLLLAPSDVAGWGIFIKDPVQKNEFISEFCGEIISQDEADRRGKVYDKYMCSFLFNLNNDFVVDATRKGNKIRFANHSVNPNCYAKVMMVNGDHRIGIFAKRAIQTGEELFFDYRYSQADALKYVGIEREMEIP
Sequence of Y641 mutant PRC2 enzyme (EZH2 Y641) (O75530 whole entry partner): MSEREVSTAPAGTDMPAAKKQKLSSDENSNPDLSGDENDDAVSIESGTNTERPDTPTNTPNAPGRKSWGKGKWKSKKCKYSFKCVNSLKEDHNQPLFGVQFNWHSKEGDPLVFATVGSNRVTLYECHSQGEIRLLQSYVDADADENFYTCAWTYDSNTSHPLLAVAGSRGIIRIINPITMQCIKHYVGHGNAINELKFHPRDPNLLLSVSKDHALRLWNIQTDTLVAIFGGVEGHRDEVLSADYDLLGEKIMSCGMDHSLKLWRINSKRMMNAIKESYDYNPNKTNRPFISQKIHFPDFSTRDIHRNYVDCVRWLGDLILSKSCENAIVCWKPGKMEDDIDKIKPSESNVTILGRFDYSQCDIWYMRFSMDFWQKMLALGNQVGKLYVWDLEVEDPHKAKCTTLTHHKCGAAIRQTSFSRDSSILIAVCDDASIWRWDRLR
Sequence of Y641 mutant PRC2 enzyme (EZH2 Y641) (Q15022 whole entry partner): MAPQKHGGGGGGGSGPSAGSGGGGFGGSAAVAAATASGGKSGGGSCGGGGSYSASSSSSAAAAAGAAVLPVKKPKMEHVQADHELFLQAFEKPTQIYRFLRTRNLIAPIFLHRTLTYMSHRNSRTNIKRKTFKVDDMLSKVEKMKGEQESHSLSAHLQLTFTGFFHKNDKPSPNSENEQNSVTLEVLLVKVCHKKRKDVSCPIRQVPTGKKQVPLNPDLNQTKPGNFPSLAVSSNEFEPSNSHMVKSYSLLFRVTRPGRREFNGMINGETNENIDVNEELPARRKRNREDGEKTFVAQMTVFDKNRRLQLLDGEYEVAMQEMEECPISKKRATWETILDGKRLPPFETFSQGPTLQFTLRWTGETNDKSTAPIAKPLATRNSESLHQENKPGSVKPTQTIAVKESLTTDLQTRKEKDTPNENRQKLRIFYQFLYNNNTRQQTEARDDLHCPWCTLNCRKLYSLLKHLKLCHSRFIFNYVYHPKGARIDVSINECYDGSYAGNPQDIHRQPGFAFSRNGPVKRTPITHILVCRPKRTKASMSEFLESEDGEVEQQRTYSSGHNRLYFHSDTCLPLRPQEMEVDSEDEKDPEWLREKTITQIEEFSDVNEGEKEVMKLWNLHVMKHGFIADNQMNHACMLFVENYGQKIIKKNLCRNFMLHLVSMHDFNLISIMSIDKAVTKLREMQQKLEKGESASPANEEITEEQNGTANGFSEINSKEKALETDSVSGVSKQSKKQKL
Sequence of Y641 mutant PRC2 enzyme (EZH2 Y641) (Q09028 whole entry partner): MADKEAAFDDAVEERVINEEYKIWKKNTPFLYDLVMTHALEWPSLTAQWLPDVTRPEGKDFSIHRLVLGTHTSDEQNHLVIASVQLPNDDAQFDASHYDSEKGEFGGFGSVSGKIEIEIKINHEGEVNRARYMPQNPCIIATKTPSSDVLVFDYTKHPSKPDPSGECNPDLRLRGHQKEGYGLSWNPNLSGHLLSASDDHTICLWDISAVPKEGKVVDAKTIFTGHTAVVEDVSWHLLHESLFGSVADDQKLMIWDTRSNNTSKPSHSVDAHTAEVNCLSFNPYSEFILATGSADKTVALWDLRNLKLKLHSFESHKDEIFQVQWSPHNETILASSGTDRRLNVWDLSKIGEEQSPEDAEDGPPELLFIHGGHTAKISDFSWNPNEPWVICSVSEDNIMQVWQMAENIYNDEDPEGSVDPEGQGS
Sequence of wild-type PRC2 enzyme (EZH2 WT) (Q15910 whole entry): as the sequence (Q15910 whole entry Y641F) above, with F641Y counted along it
Sequence of wild-type PRC2 enzyme (EZH2 WT) (O75530 whole entry partner): as the sequence (O75530 whole entry partner) above
Sequence of wild-type PRC2 enzyme (EZH2 WT) (Q15022 whole entry partner): as the sequence (Q15022 whole entry partner) above
Sequence of wild-type PRC2 enzyme (EZH2 WT) (Q09028 whole entry partner): as the sequence (Q09028 whole entry partner) above

| SMILES | IC50 [1] [µM] | IC50 [2] [µM] | IC50 [1, 3] [µM] | IC50 [2, 4] [µM] |
| --- | --- | --- | --- | --- |
| COc1c(CNC(=O)c2ccc(C(C)Oc3ccccc3)c(Cl)c2)c(C)nn1C (stereo not drawn) [compound 2, 3-chloro-N-((5-methoxy-1,3-dimethyl-1H-pyrazol-4-yl)methyl)-4-(1-phenoxyethyl)benzamide] | > 50 | > 50 |  |  |
| Cc1[nH]n(C)c(=O)c1CNC(=O)c1ccc(C(C)Oc2ccccc2)c(Cl)c1 (stereo not drawn) [compound 3, 3-chloro-N-((2,5-dimethyl-3-oxo-2,3-dihydro-1H-pyrazol-4-yl)methyl)-4-(1-phenoxyethyl)benzamide] | > 50 | > 50 |  |  |
| Cc1c(CNC(=O)c2ccc(C(C)Oc3ccccc3)c(Cl)c2)c(=O)[nH]n1C (stereo not drawn) [compound 4, 3-chloro-N-((1,5-dimethyl-3-oxo-2,3-dihydro-1H-pyrazol-4-yl)methyl)-4-(1-phenoxyethyl)benzamide] | > 50 | > 50 |  |  |
| COc1c(CNC(=O)c2ccc(C(C)Oc3ccccc3)cc2C)c(C)nn1C (stereo not drawn) [compound 7, N-((5-methoxy-1,3-dimethyl-1H-pyrazol-4-yl)methyl)-2-methyl-4-(1-phenoxyethyl)benzamide] | > 50 | > 50 |  |  |
| Cc1cc(C(C)Oc2ccccc2)ccc1C(=O)NCc1c(C)n(C)[nH]c1=O (stereo not drawn) [compound 8, N-((1,5-dimethyl-3-oxo-2,3-dihydro-1H-pyrazol-4-yl)methyl)-2-methyl-4-(1-phenoxyethyl)benzamide] | > 50 | > 50 |  |  |
| COc1nn(C)c(C)c1CNC(=O)c1cc(Cl)c(C(C)Oc2ccccc2)cc1C (stereo not drawn) [compound 9, 5-chloro-N-((3-methoxy-1,5-dimethyl-1H-pyrazol-4-yl)methyl)-2-methyl-4-(1-phenoxyethyl)benzamide] | > 50 | > 50 |  |  |
| Cc1cc(C(C)Oc2ccccc2)c(Cl)cc1C(=O)NCc1c(C)n(C)[nH]c1=O (stereo not drawn) [compound 10, 5-chloro-N-((1,5-dimethyl-3-oxo-2,3-dihydro-1H-pyrazol-4-yl)methyl)-2-methyl-4-(1-phenoxyethyl)benzamide] | 10 to 50 | 10 to 50 |  |  |
| Cc1cc(=O)c(CNC(=O)c2cc(Cl)c(C(C)Oc3ccccc3)cc2C)c(C)[nH]1 (stereo not drawn) [compound 11, 5-chloro-N-((2,6-dimethyl-4-oxo-1,4-dihydropyridin-3-yl)methyl)-2-methyl-4-(1-phenoxyethyl)benzamide] | 10 to 50 | 1 to 10 |  |  |
| Cc1cc(=O)c(CNC(=O)c2ccc(Oc3cccc(-c4ccnnc4)c3C#N)c(Cl)c2)c(C)[nH]1 [compound 13, 3-chloro-4-(2-cyano-3-(pyridazin-4-yl)phenoxy)-N-((2,6-dimethyl-4-oxo-1,4-dihydropyridin-3-yl)methyl)benzamide] | 10 to 50 | 1 to 10 |  |  |
| COc1nn(C)c(C)c1CNC(=O)c1ccc(Oc2cccc(-c3ccnnc3)c2C#N)c(Cl)c1 [compound 14, 3-chloro-4-(2-cyano-3-(pyridazin-4-yl)phenoxy)-N-((3-methoxy-1,5-dimethyl-1H-pyrazol-4-yl)methyl)benzamide] | > 50 | > 50 |  |  |
| Cc1c(CNC(=O)c2ccc(Oc3cccc(-c4ccnnc4)c3C#N)c(Cl)c2)c(=O)[nH]n1C [compound 15, 3-chloro-4-(2-cyano-3-(pyridazin-4-yl)phenoxy)-N-((1,5-dimethyl-3-oxo-2,3-dihydro-1H-pyrazol-4-yl)methyl)benzamide] | 10 to 50 | 10 to 50 |  |  |
| COc1nn(C)c(C)c1CNC(=O)c1cc(Cl)c(Oc2cccc(-c3ccnnc3)c2C#N)cc1C [compound 17, 5-chloro-4-(2-cyano-3-(pyridazin-4-yl)phenoxy)-N-((3-methoxy-1,5-dimethyl-1H-pyrazol-4-yl)methyl)-2-methylbenzamide] | > 50 | > 50 |  |  |
| Cc1cc(Oc2cccc(-c3ccnnc3)c2C#N)c(Cl)cc1C(=O)NCc1c(C)n(C)[nH]c1=O [compound 18, 5-chloro-4-(2-cyano-3-(pyridazin-4-yl)phenoxy)-N-((1,5-dimethyl-3-oxo-2,3-dihydro-1H-pyrazol-4-yl)methyl)-2-methylbenzamide] | 1 to 10 | 1 to 10 |  |  |
| COc1nn(C)c(C)c1CNC(=O)c1c(C)n(C(C)C2CCOCC2)c2ccccc12 (stereo not drawn) [compound 22, N-((3-methoxy-1,5-dimethyl-1H-pyrazol-4-yl)methyl)-2-methyl-1-(1-(tetrahydro-2H-pyran-4-yl)ethyl)-1H-indole-3-carboxamide] |  |  | > 50 | > 50 |
| Cc1c(CNC(=O)c2c(C)n(C(C)C3CCOCC3)c3ccccc23)c(=O)[nH]n1C (stereo not drawn) [compound 23, N-((1,5-dimethyl-3-oxo-2,3-dihydro-1H-pyrazol-4-yl)methyl)-2-methyl-1-(1-(tetrahydro-2H-pyran-4-yl)ethyl)-1H-indole-3-carboxamide] |  |  | > 50 | 10 to 50 |
| CCC(C)n1cc(C)c2c(C(=O)NCc3c(OC)nn(C)c3C)cc(-c3ccc(N4CCNCC4)nc3)cc21 (stereo not drawn) [compound 27, 1-(sec-butyl)-N-((3-methoxy-1,5-dimethyl-1H-pyrazol-4-yl)methyl)-3-methyl-6-(6-(piperazin-1-yl)pyridin-3-yl)-1H-indole-4-carboxamide] | 1 to 10 | 0.1 to 1 |  |  |
| CCC(C)n1cc(C)c2c(C(=O)NCc3c(C)n(C)[nH]c3=O)cc(-c3ccc(N4CCNCC4)nc3)cc21 (stereo not drawn) [compound 28, 1-(sec-butyl)-N-((1,5-dimethyl-3-oxo-2,3-dihydro-1H-pyrazol-4-yl)methyl)-3-methyl-6-(6-(piperazin-1-yl)pyridin-3-yl)-1H-indole-4-carboxamide] | 10 to 50 | 1 to 10 |  |  |
| CCC(C)n1cc(C)c2c(C(=O)NCc3c(OC)nn(CC)c3C)cc(-c3ccc(N4CCNCC4)nc3)cc21 (stereo not drawn) [compound 29, 1-(sec-butyl)-N-((1-ethyl-3-methoxy-5-methyl-1H-pyrazol-4-yl)methyl)-3-methyl-6-(6-(piperazin-1-yl)pyridin-3-yl)-1H-indole-4-carboxamide] | 1 to 10 | 1 to 10 |  |  |
| CCN(c1cc(Cl)cc(C(=O)NC2CC(C)(C)NC(C)(C)C2)c1C)[C@H]1CC[C@H](N(C)C)CC1 [compound 31, 5-chloro-3-(((trans)-4-(dimethylamino)cyclohexyl)(ethyl)amino)-2-methyl-N-(2,2,6,6-tetramethylpiperidin-4-yl)benzamide] | > 50 | > 50 |  |  |
| CCN(c1cc(Cl)cc(C(=O)NC2CC(C)(C)NC(C)(C)C2)c1C)[C@H]1CC[C@H](N(C)CCOC)CC1 [compound 32, 5-chloro-3-(ethyl((trans)-4-((2-methoxyethyl)-(methyl)-amino)-cyclohexyl)amino)-2-methyl-N-(2,2,6,6-tetramethylpiperidin-4-yl)benzamide] | > 50 | > 50 |  |  |
| CCN(c1cc(-c2ccc(OCCOC)cc2)cc(C(=O)NC2CC(C)(C)NC(C)(C)C2)c1C)C1CCOCC1 [compound 34, 5-(ethyl(tetrahydro-2H-pyran-4-yl)amino)-4′-(2-methoxyethoxy)-4-methyl-N-(2,2,6,6-tetramethylpiperidin-4-yl)-[1,1′-biphenyl]-3-carboxamide] | > 50 | > 50 |  |  |

Reference: patent publication US20200361914A1, “SUBSTITUTED BENZENE AND 6,5-FUSED BICYCLIC HETEROARYL COMPOUNDS” (Epizyme, Inc., priority 2014, published 2020)
